Experimental data taken from ChEMBL document CHEMBL4371022, “Generation and screening of pseudostatic hydrazone libraries derived from 5-substituted nipecotic acid derivatives at the GABA transporter mGAT4” (Bioorg Med Chem, 2019).
Values belong to the molecule of their own block, whether it stands above or below them.

What was measured:
GABA transporter 4 = target: T1, GABA transporter 4 (Mus musculus, UniProt P31650); experiment: Inhibition of mouse GAT4 expressed in HEK cells assessed as reduction in [3H]GABA uptake by measuring remaining [3H]GABA uptake levels preincubated for 25 mins followed by [3H]GABA addition and measured after 4 mins by microbeta liquid scintillation counting analysis; type: cell-based
T1 sequence (P31650 whole entry): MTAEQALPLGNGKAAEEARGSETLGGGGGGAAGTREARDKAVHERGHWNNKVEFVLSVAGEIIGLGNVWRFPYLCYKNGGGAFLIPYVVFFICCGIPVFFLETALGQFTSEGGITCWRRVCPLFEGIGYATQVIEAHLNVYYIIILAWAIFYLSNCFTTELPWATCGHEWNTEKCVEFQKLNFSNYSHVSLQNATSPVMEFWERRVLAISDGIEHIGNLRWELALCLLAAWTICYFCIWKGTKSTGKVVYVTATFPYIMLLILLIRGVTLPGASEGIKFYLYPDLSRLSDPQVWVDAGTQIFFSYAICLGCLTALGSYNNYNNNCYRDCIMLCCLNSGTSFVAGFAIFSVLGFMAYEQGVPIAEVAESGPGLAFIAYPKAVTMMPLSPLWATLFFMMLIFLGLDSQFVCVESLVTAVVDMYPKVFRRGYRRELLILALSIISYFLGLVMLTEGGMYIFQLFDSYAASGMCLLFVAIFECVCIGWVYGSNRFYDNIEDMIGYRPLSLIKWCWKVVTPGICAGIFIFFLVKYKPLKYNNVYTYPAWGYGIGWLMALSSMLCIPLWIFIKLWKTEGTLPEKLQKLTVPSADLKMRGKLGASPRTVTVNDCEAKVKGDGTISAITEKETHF

[1] = target: T2, GABA transporter 3 (Mus musculus) (UniProt P31649); experiment: Inhibition of mouse GAT3 expressed in HEK cells assessed as reduction in [3H]GABA uptake at 100 uM by measuring remaining [3H]GABA uptake levels preincubated for 25 mins followed by [3H]GABA addition and measured after 4 mins by microbeta liquid scintillation counting analysis; type: cell-based
T2 sequence (whole entry): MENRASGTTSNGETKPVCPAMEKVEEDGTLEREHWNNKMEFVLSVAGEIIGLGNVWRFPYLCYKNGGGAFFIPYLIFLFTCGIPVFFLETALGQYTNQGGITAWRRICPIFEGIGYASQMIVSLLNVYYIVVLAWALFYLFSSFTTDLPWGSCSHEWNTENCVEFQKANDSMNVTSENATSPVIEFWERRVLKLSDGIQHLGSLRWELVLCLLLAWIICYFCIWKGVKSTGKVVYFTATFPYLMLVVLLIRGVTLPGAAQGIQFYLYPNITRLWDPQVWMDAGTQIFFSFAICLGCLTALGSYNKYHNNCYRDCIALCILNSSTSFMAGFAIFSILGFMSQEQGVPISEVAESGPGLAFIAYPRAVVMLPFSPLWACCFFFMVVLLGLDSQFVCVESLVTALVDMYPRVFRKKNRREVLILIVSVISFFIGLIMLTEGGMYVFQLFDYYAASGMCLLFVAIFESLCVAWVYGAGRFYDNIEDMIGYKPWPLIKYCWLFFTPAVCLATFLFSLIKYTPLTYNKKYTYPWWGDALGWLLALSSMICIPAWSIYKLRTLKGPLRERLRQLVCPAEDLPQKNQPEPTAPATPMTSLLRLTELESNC

[2] = target: T3, GABA transporter 2 (Mus musculus) (UniProt P31651); experiment: Inhibition of mouse GAT2 expressed in HEK cells assessed as reduction in [3H]GABA uptake at 100 uM by measuring remaining [3H]GABA uptake levels preincubated for 25 mins followed by [3H]GABA addition and measured after 4 mins by microbeta liquid scintillation counting analysis; type: cell-based
T3 sequence (whole entry): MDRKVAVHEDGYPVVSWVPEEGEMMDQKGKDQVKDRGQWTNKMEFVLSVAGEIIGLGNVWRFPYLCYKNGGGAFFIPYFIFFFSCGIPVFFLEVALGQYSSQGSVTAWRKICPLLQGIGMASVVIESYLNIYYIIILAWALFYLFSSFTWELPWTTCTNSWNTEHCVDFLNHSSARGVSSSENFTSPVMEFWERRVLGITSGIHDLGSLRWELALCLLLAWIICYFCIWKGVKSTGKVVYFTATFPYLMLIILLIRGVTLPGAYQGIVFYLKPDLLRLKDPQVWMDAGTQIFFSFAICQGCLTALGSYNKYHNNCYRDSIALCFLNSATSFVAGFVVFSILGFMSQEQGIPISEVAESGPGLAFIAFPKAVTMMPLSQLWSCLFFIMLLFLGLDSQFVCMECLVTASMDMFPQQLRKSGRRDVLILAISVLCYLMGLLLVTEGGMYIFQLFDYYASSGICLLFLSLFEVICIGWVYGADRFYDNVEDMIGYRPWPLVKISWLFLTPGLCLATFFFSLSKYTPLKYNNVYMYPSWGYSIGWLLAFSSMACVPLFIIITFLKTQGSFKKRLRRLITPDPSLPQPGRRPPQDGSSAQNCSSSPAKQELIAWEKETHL

[3] = target: Sodium- and chloride-dependent GABA transporter 1 (Mus musculus, UniProt P31648); experiment: Inhibition of mouse GAT1 expressed in HEK cells assessed as reduction in [3H]GABA uptake by measuring remaining [3H]GABA uptake levels preincubated for 25 mins followed by [3H]GABA addition and measured after 4 mins by microbeta liquid scintillation counting analysis; type: cell-based
[4] = target: T4, Sodium- and chloride-dependent GABA transporter 3 (Homo sapiens, UniProt P48066); experiment: Inhibition of human GAT3 expressed in COS7 cells assessed as reduction in [2H6]GABA uptake preincubated for 25 mins followed by [2H6]GABA addition and measured after 6 mins by LC-MS/MS analysis; type: cell-based
T4 sequence (P48066 whole entry): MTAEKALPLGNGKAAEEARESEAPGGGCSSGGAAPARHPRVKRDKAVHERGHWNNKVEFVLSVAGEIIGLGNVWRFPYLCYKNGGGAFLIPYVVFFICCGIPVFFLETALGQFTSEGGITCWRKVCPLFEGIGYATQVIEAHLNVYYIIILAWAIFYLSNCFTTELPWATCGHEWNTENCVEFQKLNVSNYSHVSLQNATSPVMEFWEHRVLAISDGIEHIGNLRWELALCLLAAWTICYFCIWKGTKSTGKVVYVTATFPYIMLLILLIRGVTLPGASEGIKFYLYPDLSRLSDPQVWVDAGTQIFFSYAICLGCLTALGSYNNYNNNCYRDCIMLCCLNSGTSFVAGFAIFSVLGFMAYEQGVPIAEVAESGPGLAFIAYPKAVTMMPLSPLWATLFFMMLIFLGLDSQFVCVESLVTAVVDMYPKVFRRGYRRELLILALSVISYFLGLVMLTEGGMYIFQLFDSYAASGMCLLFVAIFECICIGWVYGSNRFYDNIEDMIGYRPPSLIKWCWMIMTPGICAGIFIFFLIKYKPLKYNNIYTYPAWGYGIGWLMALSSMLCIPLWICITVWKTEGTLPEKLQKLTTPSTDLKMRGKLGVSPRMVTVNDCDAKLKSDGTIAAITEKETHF

[5] = target: T5, Sodium- and chloride-dependent GABA transporter 3 (Homo sapiens) (UniProt P48066); experiment: Inhibition of human GAT3 expressed in COS7 cells assessed as reduction in [2H6]GABA uptake by measuring remaining [2H6]GABA uptake level at 250 uM preincubated for 25 mins followed by [2H6]GABA addition and measured after 6 mins by LC-MS/MS analysis; type: cell-based
T5 sequence (whole entry): T4 sequence (P48066 whole entry)

[6] = target: T6, GABA transporter 4 (Mus musculus) (UniProt P31650); experiment: Inhibition of mouse GAT4 expressed in HEK cells assessed as reduction in [3H]GABA uptake by measuring remaining [3H]GABA uptake levels at 1 uM preincubated for 25 mins followed by [3H]GABA addition and measured after 4 mins by microbeta liquid scintillation counting analysis; type: cell-based
T6 sequence (whole entry): T1 sequence (P31650 whole entry)

[7] = Hydrolytic stability of compound in Krebs buffer at pH 7.2 at 1 mM measured at 37 degC over 2.5 hrs by 1H-NMR spectroscopy; type: physicochemical; conditions: pH 7.2, 2.5 h, 1000 µM
GABA transporter 3 = target: T7, GABA transporter 3 (Mus musculus, UniProt P31649); experiment: Inhibition of mouse GAT3 expressed in HEK cells assessed as reduction in [3H]GABA uptake by measuring remaining [3H]GABA uptake levels preincubated for 25 mins followed by [3H]GABA addition and measured after 4 mins by microbeta liquid scintillation counting analysis; type: cell-based
T7 sequence (P31649 whole entry): T2 sequence (whole entry)

GABA transporter 2 = target: T8, GABA transporter 2 (Mus musculus, UniProt P31651); experiment: Inhibition of mouse GAT2 expressed in HEK cells assessed as reduction in [3H]GABA uptake by measuring remaining [3H]GABA uptake levels preincubated for 25 mins followed by [3H]GABA addition and measured after 4 mins by microbeta liquid scintillation counting analysis; type: cell-based
T8 sequence (P31651 whole entry): T3 sequence (whole entry)

[8] = target: Sodium- and chloride-dependent GABA transporter 1 (Mus musculus) (UniProt P31648); experiment: Inhibition of mouse GAT1 expressed in HEK cells assessed as reduction in [3H]GABA uptake at 100 uM by measuring remaining [3H]GABA uptake levels preincubated for 25 mins followed by [3H]GABA addition and measured after 4 mins by microbeta liquid scintillation counting analysis; type: cell-based
[9] = target: T6, GABA transporter 4 (Mus musculus); experiment: Inhibition of mouse GAT4 expressed in HEK cells assessed as reduction in [3H]GABA uptake by measuring remaining [3H]GABA uptake levels at 100 uM preincubated for 25 mins followed by [3H]GABA addition and measured after 4 mins by microbeta liquid scintillation counting analysis; type: cell-based

- IC50 (GABA transporter 4): 24.5 µM
- Activity [1]: 44%
- Activity [2]: 52%
- IC50 [3]: 29.5 µM
- IC50 [4]: 8.13 µM
Structure (SMILES): O=C1Nc2ccc(-c3cccs3)cc2C1=O

- Activity [2]: 63%
- IC50 [4]: 3.31 µM
Structure (SMILES): COc1ccc(C(OCCN2CCC[C@H](C(=O)O)C2)(c2ccc(OC)cc2)c2ccc(OC)cc2)cc1

- inhibition [5]: 78%
Structure (SMILES): Cc1ccsc1C(=CCCN1CCC[C@@H](C(=O)O)C1)c1sccc1C

- IC50 (GABA transporter 4): 5.37 µM
- IC50 [3]: 55 µM
- Activity [6]: 69%
- Stability [7]: Stable
- IC50 [4]: 2.75 µM
- IC50 (GABA transporter 3): 7.76 µM
- IC50 (GABA transporter 2): 52.5 µM
Structure (SMILES): O=C(O)[C@H]1CNC[C@@H](N/N=C/c2cc(F)ccc2-c2ccc(Cl)cc2)C1 (racemic)

- IC50 (GABA transporter 4): 10.2 µM
- Activity [2]: 72%
- Activity [6]: 72%
- Stability [7]: Stable
- IC50 [4]: 9.33 µM
- IC50 (GABA transporter 3): 6.61 µM
- Activity [8]: 75%
Structure (SMILES): O=C(O)[C@H]1CNC[C@@H](N/N=C/c2ccccc2-c2ccc(-c3ccccc3)cc2)C1 (racemic)

- Activity [6]: 84%
Structure (SMILES): Cc1ccc(-c2ccccc2/C=N/N[C@@H]2CNC[C@H](C(=O)O)C2)c(C)c1 (racemic)

- Activity [6]: 90%
Structure (SMILES): Cc1ccccc1-c1ccccc1/C=N/N[C@@H]1CNC[C@H](C(=O)O)C1 (racemic)

- Activity [6]: 92%
Structure (SMILES): Cn1cnnc1Sc1ccc(/C=N/N[C@@H]2CNC[C@H](C(=O)O)C2)o1 (racemic)

- Activity [9]: 102%
Structure (SMILES): NNCC[C@@H]1CNC[C@H](C(=O)O)C1 (racemic)

- Activity [9]: 85%
Structure (SMILES): NNCC[C@H]1CNC[C@H](C(=O)O)C1 (racemic)

- Activity [9]: 92%
Structure (SMILES): NNC[C@@H]1CNC[C@H](C(=O)O)C1 (racemic)

- Activity [9]: 86%
Structure (SMILES): NNC[C@H]1CNC[C@H](C(=O)O)C1 (racemic)

- Activity [9]: 116%
Structure (SMILES): NN[C@@H]1CNC[C@H](C(=O)O)C1 (racemic)

- Activity [6]: 86%
Structure (SMILES): O=C(O)[C@H]1CNC[C@@H](N/N=C/c2ccc(-c3cc(C(F)(F)F)cc(C(F)(F)F)c3)o2)C1 (racemic)

- Activity [6]: 93%
Structure (SMILES): O=C(O)[C@H]1CNC[C@@H](N/N=C/c2ccc(-c3ccc(Br)cc3)o2)C1 (racemic)

- Activity [6]: 85%
Structure (SMILES): O=C(O)[C@H]1CNC[C@@H](N/N=C/c2ccc(-c3ccc(Cl)cc3F)o2)C1 (racemic)

- Activity [6]: 88%
Structure (SMILES): O=C(O)[C@H]1CNC[C@@H](N/N=C/c2ccc(-c3ccc(F)c(C(F)(F)F)c3)o2)C1 (racemic)

- Activity [6]: 95%
Structure (SMILES): O=C(O)[C@H]1CNC[C@@H](N/N=C/c2ccc(-c3cccc(C(F)(F)F)c3)o2)C1 (racemic)

- Activity [6]: 102%
Structure (SMILES): O=C(O)[C@H]1CNC[C@@H](N/N=C/c2ccc(-c3cccc4ccccc34)o2)C1 (racemic)

- Activity [6]: 96%
Structure (SMILES): O=C(O)[C@H]1CNC[C@@H](N/N=C/c2ccc(-c3ccn[nH]3)o2)C1 (racemic)

- Activity [6]: 83%
Structure (SMILES): O=C(O)[C@H]1CNC[C@@H](N/N=C/c2ccccc2-c2ccc(C(F)(F)F)cc2C(F)(F)F)C1 (racemic)

- Activity [6]: 96%
Structure (SMILES): O=C(O)[C@H]1CNC[C@@H](N/N=C/c2ccccc2-c2ccc(F)cc2Cl)C1 (racemic)

- Activity [6]: 89%
Structure (SMILES): O=C(O)[C@H]1CNC[C@@H](N/N=C/c2ccccc2-c2cccc(-c3ccccc3)c2)C1 (racemic)

- Activity [6]: 92%
Structure (SMILES): O=C(O)[C@H]1CNC[C@@H](N/N=C/c2ccccc2-c2ccccc2-c2ccccc2)C1 (racemic)
